Test results as given in patent US7732434B2, “Macrocyclic acyl guanidines as beta-secretase inhibitors” (Bristol-Myers Squibb Company, priority 2007, dated 2010).

Tested on: not given
Assay: not given
Settings: from C=CCCCCN(CC(=O)Nc1c(Cl)cc(CN/C(=N/C(=O)c2c(-c3ccc(OCC=C)cc3)noc2C)NC(=O)OC(C)(C)C)cc1Cl)C(=O)OC(C)(C)C; rcm bond; Grubbs Catalyst 2nd Generation; 1,2-dichloroethane; 3.71 mM; 45.0 °C; 2.0 h

For `Cc1onc2c1C(=O)N=C(NC(=O)OC(C)(C)C)NCc1cc(Cl)c(c(Cl)c1)NC(=O)CN(C(=O)OC(C)(C)C)CCCCC=CCOc1ccc-2cc1` (mixture of isomers), the ring closure, yield of all isomers was 64.9%.

Same assay, conditions: from C=CCCCN(CC(=O)Nc1c(Cl)cc(CN/C(=N/C(=O)c2c(-c3ccc(OCC=C)cc3)noc2C)NC(=O)OC(C)(C)C)cc1Cl)C(=O)OC(C)(C)C; rcm bond; Grubbs Catalyst 2nd Generation; 1,2-dichloroethane; 3.94 mM; 40.0 °C; 2.0 h

In the case of `Cc1onc2c1C(=O)N=C(NC(=O)OC(C)(C)C)NCc1cc(Cl)c(c(Cl)c1)NC(=O)CN(C(=O)OC(C)(C)C)CCCC=CCOc1ccc-2cc1`, the ring closure, yield of all isomers is reported as 69.9%.

Same assay, conditions: from C=CCCCN(CC(=O)Nc1c(Cl)cc(CN/C(=N/C(=O)c2c(-c3ccc(OCC=C)cc3)nsc2C)NC(=O)OC(C)(C)C)cc1Cl)C(=O)OC(C)(C)C; rcm bond; Grubbs Catalyst 1st Generation; 1,2-dichloroethane; 3.04 mM; 70.0 °C; 6.0 h

`Cc1snc2c1C(=O)N=C(NC(=O)OC(C)(C)C)NCc1cc(Cl)c(c(Cl)c1)NC(=O)CN(C(=O)OC(C)(C)C)CCCC=CCOc1ccc-2cc1` showed a ring closure, yield of all isomers of 68%.

Same assay, conditions: from C=CCOc1ccc(-c2noc(C)c2C(=O)/N=C(/NCc2cc(Cl)c(NC(=O)CN(CC=C)C(=O)OC(C)(C)C)c(Cl)c2)NC(=O)OC(C)(C)C)cc1; rcm bond; Grubbs Catalyst 2nd Generation; 1,2-dichloroethane; 5.84 mM; 45.0 °C; 2.0 h

In the case of `Cc1onc2c1C(=O)N=C(NC(=O)OC(C)(C)C)NCc1cc(Cl)c(c(Cl)c1)NC(=O)CN(C(=O)OC(C)(C)C)CC=CCOc1ccc-2cc1`, the ring closure, yield of all isomers is reported as 53%.

Target: T1, BACE1 enzyme (Homo sapiens, UniProt P56817)
T1 construct: The HEK293-9B.A1 cell line, which overexpresses the BACE1 enzyme, was derived from HEK293 cells; endogenous in cells; washed 48,000 x g pellet of cell homogenate
Assay: Radioligand displacement assay with a radiolabeled BACE inhibitor, HEK293-9B.A1 cell homogenate
Type: binding
Settings: displacement of 1 nM radioligand, HEK293-9B.A1 homogenate, pH 5.0, 1.5 hr at 25° C.; read-out: Activity Rating (activity based on IC50 values)
Method: Radioligand displacement assays with a radiolabeled BACE inhibitor (WO 2004 013098, compound 3, where the methoxy group is substituted for C(^3H)3) were carried out using standard methods (Keen, M. (1999) in Receptor Binding Techniques (Walker, J. M. ed) p. 106Humana Press, Totowa, N.J.). The HEK293-9B.A1 cell line, which overexpresses the BACE1 enzyme, was derived from HEK293 cells (Simmons, N. L. (1990) A cultured human renal epithelioid cell line responsive to vasoactive intestinal peptide. Exp. Physiol. 75:309-19.) by RAGE™ (Harrington, J. J. et al. (2001) Creation of genome-wide protein expression libraries using random activation of gene expression. Nat. Biotechnol. 19:440-5.; U.S. Pat. Nos. 6,410,266 and 6,361,972). T225 flask cultures of HEK293-9B.A1 were grown to 80% confluency in DMEM supplemented with 2 mM L-glutamine, 10 μg/ml penicillin, 10 μg/ml streptomycin, 3 μg/ml puromycin, 100 nM methotrexate, and 10% fetal bovine serum (Invitrogen, Carlsbad, Calif.), harvested, and resuspended at 2×10^8 cells per 10 ml of lysis buffer consisting of 50 mM HEPES pH 7.0 containing a protease inhibitor cocktail of AEBSF 104 μM, aprotinin 80 nM, leupeptin 2 μM, bestatin 4 μM, pepstatin A 1.5 μM, and E-64 1.4 μM (0.1% of protease inhibitor cocktail P8340, Sigma-Aldrich, St. Louis, Mo.) at 4° C. The resuspended cells were homogenized using a Polytron (Brinkman, Westbury, N.Y.) at setting 6 for 10 sec., then centrifuged at 48,000×g for 10 min. The resulting pellet was washed by repeating the resuspension, homogenization and centrifugation steps. The final pellet was resuspended in buffer at 4° C. to yield a total protein concentration of 5 mg/ml, then aliquots were frozen in liquid nitrogen for further storage at −70° C. Immediately before carrying out a binding assay, an aliquot of cell homogenate was thawed and diluted to a concentration of 100 μg/ml in assay buffer consisting of 50 mM HEPES pH 5.0 and 0.1% CHAPSO. Assays were initiated in polypropylene 96-well plates (Costar, Cambridge, Mass.) by the addition of 200 μl of cell homogenate to 50 μl of assay buffer containing 1 nM radioligand (WO 2004 013098, compound 3, where the methoxy group is substituted for C(^3H)3: 80 Ci/mMol) and various concentrations of unlabelled compounds, and incubated for 1.5 hr. at 25° C. Separation of bound from free radioligand was by filtration on GFF glass fiber filters (Innotech Biosystems International, Lansing, Mich.) using an Innotech cell harvester. Filters were washed three times with 0.3 ml of phosphate buffered saline pH 7.0 at 4° C. and assessed for radioactivity using a Wallac 1450 Microbeta liquid scintillation counter (PerkinElmer, Boston, Mass.). Ki values of competing compounds were derived through Cheng-Prussoff correction of IC50 values calculated using XLfit (IDBS, Guildford, UK).

T1 sequence (P56817 46-501): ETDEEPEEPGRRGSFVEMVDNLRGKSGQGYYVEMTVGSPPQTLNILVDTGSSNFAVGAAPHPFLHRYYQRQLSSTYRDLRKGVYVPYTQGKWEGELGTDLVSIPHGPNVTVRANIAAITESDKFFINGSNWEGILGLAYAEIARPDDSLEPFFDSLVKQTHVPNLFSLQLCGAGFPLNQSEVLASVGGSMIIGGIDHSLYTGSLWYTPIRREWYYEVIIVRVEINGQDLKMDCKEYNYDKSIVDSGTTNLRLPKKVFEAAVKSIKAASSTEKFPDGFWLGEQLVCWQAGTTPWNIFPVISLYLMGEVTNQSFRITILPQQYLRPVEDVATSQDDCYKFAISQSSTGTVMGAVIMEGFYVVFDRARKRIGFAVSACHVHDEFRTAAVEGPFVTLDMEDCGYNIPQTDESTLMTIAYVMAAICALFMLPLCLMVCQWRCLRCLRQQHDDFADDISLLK

`Cc1onc2c1C(=O)/N=C(\N)NCc1cc(Cl)c(c(Cl)c1)NC(=O)CNCC=CCOc1ccc-2cc1` [Example 1, 9-Amino-14,30-dichloro-5-methyl-4,24-dioxa-3,8,10,16,19-pentaazatetracyclo-[23.2.2.2^12,15.0^2,6]hentriaconta-1(27),2,5,8,12,14,21,25,28,30-decaene-7,17-dione] and `Cc1onc2c1C(=O)/N=C(\N)NCc1cc(Cl)c(c(Cl)c1)NC(=O)CNCC/C=C/COc1ccc-2cc1` [Example 2, (22E)-9-Amino-14,31-dichloro-5-methyl-4,25-dioxa-3,8,10,16,19-pentaazatetracyclo[24.2.2.2^12,15.0^2,6]dotriaconta-1(28),2,5,8,12,14,22,26,29,31-decaene-7,17-dione] cannot be ordered by IC50: > 50 nM for the first, > 50 nM for the second.

Compared with `Cc1onc2c1C(=O)/N=C(\N)NCc1cc(Cl)c(c(Cl)c1)NC(=O)CNCCC/C=C\COc1ccc-2cc1` [Example 3, 9-Amino-14,32-dichloro-5-methyl-4,26-dioxa-3,8,10,16,19-pentaazatetracyclo-[25.2.2.2^12,15.0^2,6]tritriaconta-1(29),2,5,8,12,14,23,27,30,32-decaene-7,17-dione], `Cc1onc2c1C(=O)/N=C(\N)NCc1cc(Cl)c(c(Cl)c1)NC(=O)CNCCCC/C=C\COc1ccc-2cc1` [Example 7, (24Z)-9-Amino-14,33-dichloro-5-methyl-4,27-dioxa-3,8,10,16,19-pentaazatetracyclo[26.2.2.2^12,15.0^2,6]tetratriaconta-1(30),2,5,8,12,14,24,28,31,33-decaene-7,17-dione] is lower in IC50: 5 to 50 nM for the first, < 5 nM for the second. The second is the more potent here.

Compared with `Cc1snc2c1C(=O)/N=C(\N)NCc1cc(Cl)c(c(Cl)c1)NC(=O)CNCCCC=CCOc1ccc-2cc1` [Example 4, 9-Amino-14,32-dichloro-5-methyl-26-oxa-4-thia-3,8,10,16,19-pentaazatetracyclo[25.2.2.2^12,15.0^2,6]tritriaconta-1(29),2,5,8,12,14,23,27,30,32-decaene-7,17-dione], `Cc1snc2c1C(=O)/N=C(\N)NCc1cc(Cl)c(c(Cl)c1)NC(=O)CNCC/C=C\COc1ccc-2cc1` [Example 8, (22Z)-9-Amino-14,31-dichloro-5-methyl-25-oxa-4-thia-3,8,10,16,19-pentaazatetracyclo[24.2.2.2^12,15.0^2,6]dotriaconta-1(28),2,5,8,12,14,22,26,29,31-decaene-7,17-dione] is lower in IC50: 5 to 50 nM for the first, < 5 nM for the second. The second is the more potent here.

First: Cc1snc2c1C(=O)/N=C(\N)NCc1cc(Cl)c(c(Cl)c1)NC(=O)CNCCCCCCOc1ccc-2cc1 [Example 5, 9-Amino-14,32-dichloro-5-methyl-26-oxa-4-thia-3,8,10,16,19-pentaazatetracyclo[25.2.2.2^12,15.0^2,6]tritriaconta-1(29),2,5,8,12,14,27,30,32-nonaene-7,17-dione]
Second: Cc1snc2c1C(=O)/N=C(\N)NCc1cc(Cl)c(c(Cl)c1)NC(=O)CNCCCCCOc1ccc-2cc1 [Example 9, 9-Amino-14,31-dichloro-5-methyl-25-oxa-4-thia-3,8,10,16,19-pentaazatetracyclo[24.2.2.2^12,15.0^2,6]dotriaconta-1(28),2,5,8,12,14,26,29,31-nonaene-7,17-dione]
The IC50 of the first is higher: 5 to 50 nM for the first, < 5 nM for the second. The second is the more potent here.

First: Cc1snc2c1C(=O)/N=C(\N)NCc1cc(Cl)c(c(Cl)c1)NC(=O)CN(Cc1ccccc1)CCCC=CCOc1ccc-2cc1 [Example 6, 9-Amino-19-benzyl-14,32-dichloro-5-methyl-26-oxa-4-thia-3,8,10,16,19-pentaazatetracyclo[25.2.2.2^12,15.0^2,6]tritriaconta-1(29),2,5,8,12,14,23,27,30,32-decaene-7,17-dione]
Second: Cc1onc2c1C(=O)N=C(N)NCc1ccc(c(Cl)c1)NC(=O)CNCCC/C=C\COc1ccc-2cc1 [Example 11, (23Z)-9-Amino-14-chloro-5-methyl-4,26-dioxa-3,8,10,16,19-pentaazatetracyclo-[25.2.2.2^12,5.0^2,6]tritriaconta-1(29),2,5,8,12,14,23,27,30,32-decaene-7,17-dione]
The IC50 of the first is higher: 5 to 50 nM for the first, < 5 nM for the second.

For `Cc1onc2c1C(=O)/N=C(\N)NCc1ccc(cc1)NC(=O)CNCCC/C=C\COc1ccc-2cc1` [Example 10, (23Z)-9-Amino-5-methyl-4,26-dioxa-3,8,10,16,19-pentaazatetracyclo-[25.2.2.2^12,15.0^2,6]tritriaconta-1(29),2,5,8,12,14,23,27,30,32-decaene-7,17-dione], the IC50 was < 5 nM.
